PubChem BioAssay AID687027 (Broad Institute, 2013)

Tested on: RMG-I TPO-Luc reporter, SteadyGlo luminescence, 24 h
Assay: inhibitors of PAX8-driven TPO luciferase reporter, dose response, RMG-I cells, cherry-pick (AID 687027);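 also: potency for lowering reporter light which is read as Pax8 inhibition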

## COC(C(=O)C(O)C(C)O)C1Cc2cc3cc(OC4CC(OC5CC(O)C(O)C(C)O5)C(O)C(C)O4)c(C)c(O)c3c(O)c2C(=O)C1OC1CC(OC2CC(OC3CC(O)C(OC)C(C)O3)C(O)C(C)O2)C(O)C(C)O1 (stereo unspecified)
  AC50: < 260 nM
